The values that follow come from patent US20260092071A1, “COMPOUNDS AND COMPOSITIONS AS SMARCA2/4 DEGRADERS AND USES THEREOF” (REGENTS OF THE UNIVERSITY OF MICHIGAN, priority 2022, published 2026).

One experiment concerns the target SMARCA4 (Homo sapiens, UniProt P51532). Put plainly: HiBiT assay for protein degradation, Hela SMARCA4-HiBiT cells (A series). It counts as cell-based. Also noted: fuse HiBiT to the carboxy terminus of SMARCA2 (Promega CS302365) or SMARCA4 (Promega CS3023225); host or cells: HeLa (CRISPR/Cas9 HiBiT knock-in). As to conditions: Hela SMARCA4-HiBiT cells, 24 hours treatment; for DC50: read-out: SMARC A4 Hela HiBit DC50; for Dmax: read-out: SMARC A4 Hela HiBit Dmax. In short, it runs like this:
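SMARCA4 degradation was measured in HeLa cells in which HiBiT had been knocked into the SMARCA4 carboxy terminus via CRISPR/Cas9 (Promega CS3023225). Cells were maintained in DMEM with FBS and penicillin-streptomycin. At the end of treatment, SMARCA4 levels were read by lytic HiBiT luminescence (Nano-Glo®, Promega N3050), and data were analyzed with GraphPad Prism.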
A general note: The HiBiT peptide binds its large partner to form an active luciferase.

The target in a further experiment is SMARCA2 (Homo sapiens, UniProt P51531). Put plainly: HiBiT assay for protein degradation, Hela SMARCA2-HiBiT cells (A series).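 On SMARC A2 Hela HiBit Dmax (%): 24 h compound treatment.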 As to conditions: Hela SMARCA2-HiBiT cells, 24 hours treatment; for DC50: read-out: SMARC A2 Hela HiBit DC50; for Dmax: read-out: SMARC A2 Hela HiBit Dmax (%). On the set-up: Hela cells were genetically modified via CRISPR/Cas9 to fuse HiBiT to the carboxy terminus of SMARCA2; host or cells: HeLa (CRISPR/Cas9 HiBiT knock-in). It counts as cell-based. In short, it runs like this: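 SMARCA2 degradation was measured in HeLa cells whose endogenous SMARCA2 carries a carboxy-terminal HiBiT tag introduced by CRISPR/Cas9 (Promega CS302365). Cells were maintained in DMEM with FBS and penicillin-streptomycin. SMARCA2 levels were read at the end of the experiment by Nano-Glo® HiBiT lytic luminescence (Promega N3050) and analyzed in GraphPad Prism.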
Chain of SMARCA2 (P51531 whole entry): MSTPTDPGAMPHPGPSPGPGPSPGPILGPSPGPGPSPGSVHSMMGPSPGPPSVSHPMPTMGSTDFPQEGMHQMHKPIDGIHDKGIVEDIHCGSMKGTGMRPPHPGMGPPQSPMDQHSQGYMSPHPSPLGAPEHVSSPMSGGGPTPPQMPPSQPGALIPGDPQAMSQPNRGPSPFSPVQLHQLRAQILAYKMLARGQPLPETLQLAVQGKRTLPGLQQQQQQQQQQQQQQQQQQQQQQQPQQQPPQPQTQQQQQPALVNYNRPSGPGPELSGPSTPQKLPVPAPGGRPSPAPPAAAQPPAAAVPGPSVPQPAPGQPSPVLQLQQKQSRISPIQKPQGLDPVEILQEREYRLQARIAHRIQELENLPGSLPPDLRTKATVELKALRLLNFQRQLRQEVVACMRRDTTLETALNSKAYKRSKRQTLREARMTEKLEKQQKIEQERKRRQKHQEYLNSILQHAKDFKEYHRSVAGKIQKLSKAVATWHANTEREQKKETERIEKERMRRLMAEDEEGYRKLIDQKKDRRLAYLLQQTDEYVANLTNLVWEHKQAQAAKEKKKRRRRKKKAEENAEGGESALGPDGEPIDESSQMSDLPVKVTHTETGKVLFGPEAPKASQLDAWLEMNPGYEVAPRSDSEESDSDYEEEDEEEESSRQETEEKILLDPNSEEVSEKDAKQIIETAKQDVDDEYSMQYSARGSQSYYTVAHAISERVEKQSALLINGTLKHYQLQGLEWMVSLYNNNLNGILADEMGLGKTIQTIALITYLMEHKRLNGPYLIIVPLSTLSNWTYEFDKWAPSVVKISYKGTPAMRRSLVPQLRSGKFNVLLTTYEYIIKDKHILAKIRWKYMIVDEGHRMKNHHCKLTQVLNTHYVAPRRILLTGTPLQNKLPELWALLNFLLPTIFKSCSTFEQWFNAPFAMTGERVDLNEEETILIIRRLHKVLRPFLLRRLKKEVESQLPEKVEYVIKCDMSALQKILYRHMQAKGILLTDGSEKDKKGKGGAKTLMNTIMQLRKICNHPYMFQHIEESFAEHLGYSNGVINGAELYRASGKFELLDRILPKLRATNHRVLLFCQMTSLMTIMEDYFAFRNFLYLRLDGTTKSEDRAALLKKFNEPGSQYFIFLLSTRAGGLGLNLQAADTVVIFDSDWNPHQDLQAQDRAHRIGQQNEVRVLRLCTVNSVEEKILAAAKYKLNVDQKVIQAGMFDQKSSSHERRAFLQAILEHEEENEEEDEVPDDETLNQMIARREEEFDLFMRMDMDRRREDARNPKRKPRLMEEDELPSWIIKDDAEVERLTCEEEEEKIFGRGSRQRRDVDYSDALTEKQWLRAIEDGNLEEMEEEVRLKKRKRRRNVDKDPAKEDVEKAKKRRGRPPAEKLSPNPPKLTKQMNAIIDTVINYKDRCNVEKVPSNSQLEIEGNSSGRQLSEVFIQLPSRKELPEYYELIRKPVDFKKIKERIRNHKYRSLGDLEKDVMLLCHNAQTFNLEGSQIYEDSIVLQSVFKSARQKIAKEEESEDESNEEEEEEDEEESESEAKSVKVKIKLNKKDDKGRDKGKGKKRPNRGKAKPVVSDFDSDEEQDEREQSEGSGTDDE

Chain of SMARCA4 (P51532 whole entry): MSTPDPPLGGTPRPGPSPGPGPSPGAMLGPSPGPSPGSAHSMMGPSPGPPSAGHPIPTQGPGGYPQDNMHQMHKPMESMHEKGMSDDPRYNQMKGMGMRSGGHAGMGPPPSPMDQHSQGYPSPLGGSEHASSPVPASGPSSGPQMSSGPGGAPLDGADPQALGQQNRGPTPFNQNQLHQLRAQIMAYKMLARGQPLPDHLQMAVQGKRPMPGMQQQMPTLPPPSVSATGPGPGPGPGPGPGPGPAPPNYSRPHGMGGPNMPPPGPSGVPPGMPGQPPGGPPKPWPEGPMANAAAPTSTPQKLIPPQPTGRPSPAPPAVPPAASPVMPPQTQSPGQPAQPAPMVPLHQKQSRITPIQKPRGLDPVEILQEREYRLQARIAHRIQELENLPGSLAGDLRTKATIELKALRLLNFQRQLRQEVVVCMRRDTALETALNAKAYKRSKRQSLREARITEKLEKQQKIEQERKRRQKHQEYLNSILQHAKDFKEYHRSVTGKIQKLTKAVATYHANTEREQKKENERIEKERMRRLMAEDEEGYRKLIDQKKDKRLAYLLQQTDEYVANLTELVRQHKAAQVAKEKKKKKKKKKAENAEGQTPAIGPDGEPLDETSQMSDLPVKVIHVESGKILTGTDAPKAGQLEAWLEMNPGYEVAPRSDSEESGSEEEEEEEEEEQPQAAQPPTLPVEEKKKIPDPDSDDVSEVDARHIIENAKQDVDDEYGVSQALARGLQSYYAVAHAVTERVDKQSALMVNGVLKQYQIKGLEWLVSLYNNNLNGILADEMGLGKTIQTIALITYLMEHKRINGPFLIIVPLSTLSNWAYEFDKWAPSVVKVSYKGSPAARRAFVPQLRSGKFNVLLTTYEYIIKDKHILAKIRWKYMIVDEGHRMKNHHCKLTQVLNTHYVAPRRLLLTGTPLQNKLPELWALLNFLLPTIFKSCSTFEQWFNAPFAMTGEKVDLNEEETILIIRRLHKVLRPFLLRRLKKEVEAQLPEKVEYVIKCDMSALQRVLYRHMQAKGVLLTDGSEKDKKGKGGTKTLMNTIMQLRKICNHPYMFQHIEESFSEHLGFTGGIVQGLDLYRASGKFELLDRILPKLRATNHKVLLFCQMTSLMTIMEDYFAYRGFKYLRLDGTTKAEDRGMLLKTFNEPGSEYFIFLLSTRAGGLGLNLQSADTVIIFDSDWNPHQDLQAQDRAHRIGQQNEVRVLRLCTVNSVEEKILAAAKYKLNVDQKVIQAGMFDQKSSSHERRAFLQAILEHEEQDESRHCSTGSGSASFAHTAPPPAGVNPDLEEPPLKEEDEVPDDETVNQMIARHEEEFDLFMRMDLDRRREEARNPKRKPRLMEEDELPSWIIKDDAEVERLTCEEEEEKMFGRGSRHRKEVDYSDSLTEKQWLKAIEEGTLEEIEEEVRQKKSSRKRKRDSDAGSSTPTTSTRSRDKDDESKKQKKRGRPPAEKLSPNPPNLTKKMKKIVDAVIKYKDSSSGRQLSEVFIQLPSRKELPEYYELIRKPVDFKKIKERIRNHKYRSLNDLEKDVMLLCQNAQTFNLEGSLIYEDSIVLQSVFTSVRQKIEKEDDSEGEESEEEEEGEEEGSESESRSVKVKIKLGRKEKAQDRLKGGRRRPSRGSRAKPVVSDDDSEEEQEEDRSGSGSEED

Consider `Cc1ncsc1-c1ccc([C@H](CC(=O)N2CCC(CN3CCC(c4ccc5c(c4)-n4c(nc(=O)c6c(Br)cccc64)C54CCCCC4)CC3)CC2)NC(=O)[C@@H]2C[C@@H](O)CN2C(=O)[C@@H](n2cc(C3CC3)nn2)C(C)(C)C)cc1` [Compound A141, (2S,4R)—N—((S)-3-(4-((4-(4′-bromo-5′-oxo-5′H-spiro[cyclohexane-1,7′-indolo[1,2-a]quinazolin]-10′-yl)piperidin-1-yl)methyl)piperidin-1-yl)-1-(4-(4-methylthiazol-5-yl)phenyl)-3-oxopropyl)-1-((S)-2-(4-cyclopropyl-1H-1,2,3-triazol-1-yl)-3,3-dimethylbutanoyl)-4-hydroxypyrrolidine-2-carboxamide], for which the DC50 on SMARCA4 and at SMARCA2 was below 10 nM each time. The Dmax on SMARCA4 and at SMARCA2 was above 90% each time.

Turning to `Cc1ncsc1-c1ccc([C@H](CC(=O)N2CCC3(CCC(CN4CCC(c5ccc6c(c5)-n5c(nc(=O)c7c(Br)cccc75)C65CCCCC5)CC4)CC3)CC2)NC(=O)[C@@H]2C[C@@H](O)CN2C(=O)[C@@H](n2cc(C3CC3)nn2)C(C)(C)C)cc1` [Compound A142, (2S,4R)—N—((S)-3-(9-((4-(4′-bromo-5′-oxo-5′H-spiro[cyclohexane-1,7′-indolo[1,2-a]quinazolin]-10′-yl)piperidin-1-yl)methyl)-3-azaspiro[5.5]undecan-3-yl)-1-(4-(4-methylthiazol-5-yl)phenyl)-3-oxopropyl)-1-((S)-2-(4-cyclopropyl-1H-1,2,3-triazol-1-yl)-3,3-dimethylbutanoyl)-4-hydroxypyrrolidine-2-carboxamide], at SMARCA4, the DC50 (commonly the concentration giving 50% degradation) was below 10 nM and the Dmax (usually the largest share of the target that was removed) is 70 to 90%. At SMARCA2, the DC50 is below 10 nM and the Dmax was above 90%.

In the case of `Cc1ncsc1-c1ccc([C@H](CC(=O)N2CCC(N3CCC(c4ccc5c(c4)-n4c(nc(=O)c6c(Cl)cccc64)C54CCCCC4)CC3)CC2)NC(=O)[C@@H]2C[C@@H](O)CN2C(=O)[C@@H](n2cc(C3CC3)nn2)C(C)(C)C)cc1` [Compound A143, (2S,4R)—N—((S)-3-(4-(4′-chloro-5′-oxo-5′H-spiro[cyclohexane-1,7′-indolo[1,2-a]quinazolin]-10′-yl)-[1,4′-bipiperidin]-1′-yl)-1-(4-(4-methylthiazol-5-yl)phenyl)-3-oxopropyl)-1-((S)-2-(4-cyclopropyl-1H-1,2,3-triazol-1-yl)-3,3-dimethylbutanoyl)-4-hydroxypyrrolidine-2-carboxamide], the results for the DC50 on SMARCA4 and on SMARCA2 were 100 to 1000 nM and 10 to 100 nM, respectively. The Dmax was in the range of 50 to 69% at SMARCA4 and 70 to 90% at SMARCA2.

Regarding `Cc1ncsc1-c1ccc([C@H](CC(=O)N2CCC3(CCC(N4CCC(c5ccc6c(c5)-n5c(nc(=O)c7c(Br)cccc75)C65CCCCC5)CC4)CC3)CC2)NC(=O)[C@@H]2C[C@@H](O)CN2C(=O)[C@@H](n2cc(C3CC3)nn2)C(C)(C)C)cc1` [Compound A144, (2S,4R)—N—((S)-3-(9-(4-(4′-bromo-5′-oxo-5′H-spiro[cyclohexane-1,7′-indolo[1,2-a]quinazolin]-10′-yl)piperidin-1-yl)-3-azaspiro[5.5]undecan-3-yl)-1-(4-(4-methylthiazol-5-yl)phenyl)-3-oxopropyl)-1-((S)-2-(4-cyclopropyl-1H-1,2,3-triazol-1-yl)-3,3-dimethylbutanoyl)-4-hydroxypyrrolidine-2-carboxamide], the DC50 at SMARCA4 was 10 to 100 nM; on SMARCA2 it was below 10 nM. For the same compound, the results for the Dmax on SMARCA4 and at SMARCA2 were 70 to 90% and above 90%, respectively.

`COC(=O)C[C@H](NC(=O)[C@@H]1C[C@@H](O)CN1C(=O)[C@@H](n1cc([C@H]2CC[C@H](CN3CCC(c4ccc5c(c4)-n4c(nc(=O)c6c(Cl)cccc64)C54CCCCC4)CC3)CC2)nn1)C(C)(C)C)c1ccc(-c2scnc2C)cc1` [Compound A145, methyl(S)-3-((2S,4R)-1-((S)-2-(4-((1r,4S)-4-((4-(4′-chloro-5′-oxo-5′H-spiro[cyclohexane-1,7′-indolo[1,2-a]quinazolin]-10′-yl)piperidin-1-yl)methyl)cyclohexyl)-1H-1,2,3-triazol-1-yl)-3,3-dimethylbutanoyl)-4-hydroxypyrrolidine-2-carboxamido)-3-(4-(4-methylthiazol-5-yl)phenyl) propanoate]: at SMARCA4, the DC50 was above 1000 nM and the Dmax lay within 50 to 69%. Further, on SMARCA2, the DC50 is below 10 nM and the Dmax was above 90%.

In the case of `Cc1ncsc1-c1ccc([C@H](CC(=O)O)NC(=O)[C@@H]2C[C@@H](O)CN2C(=O)[C@@H](n2cc([C@H]3CC[C@H](CN4CCC(c5ccc6c(c5)-n5c(nc(=O)c7c(Cl)cccc75)C65CCCCC5)CC4)CC3)nn2)C(C)(C)C)cc1` [Compound A146, (S)-3-((2S,4R)-1-((S)-2-(4-((1r,4S)-4-((4-(4′-chloro-5′-oxo-5′H-spiro[cyclohexane-1,7′-indolo[1,2-a]quinazolin]-10′-yl)piperidin-1-yl)methyl)cyclohexyl)-1H-1,2,3-triazol-1-yl)-3,3-dimethylbutanoyl)-4-hydroxypyrrolidine-2-carboxamido)-3-(4-(4-methylthiazol-5-yl)phenyl) propanoic acid], at SMARCA4, the DC50 was above 1000 nM and the greatest degradation seen (Dmax) was below 50%. For the same compound, on SMARCA2, the DC50 lay within 10 to 100 nM and the Dmax is 70 to 90%.

Take `Cc1ncsc1-c1ccc([C@H](CC(=O)N(C)C)NC(=O)[C@@H]2C[C@@H](O)CN2C(=O)[C@@H](n2cc([C@H]3CC[C@H](CN4CCC(c5ccc6c(c5)-n5c(nc(=O)c7c(Cl)cccc75)C65CCCCC5)CC4)CC3)nn2)C(C)(C)C)cc1` [Compound A147, (2S,4R)-1-((S)-2-(4-((1r,4S)-4-((4-(4′-chloro-5′-oxo-5′H-spiro[cyclohexane-1,7′-indolo[1,2-a]quinazolin]-10′-yl)piperidin-1-yl)methyl)cyclohexyl)-1H-1,2,3-triazol-1-yl)-3,3-dimethylbutanoyl)-N—((S)-3-(dimethylamino)-1-(4-(4-methylthiazol-5-yl)phenyl)-3-oxopropyl)-4-hydroxypyrrolidine-2-carboxamide]: the half-maximal degradation concentration (DC50) on SMARCA4 was above 1000 nM; on SMARCA2, below 10 nM. Besides, the Dmax on SMARCA4 is 50 to 69%; on SMARCA2 it was above 90%.

As to `COCCOCCOCCOC[C@H](NC(=O)[C@@H]1C[C@@H](O)CN1C(=O)[C@@H](n1cc([C@H]2CC[C@H](CN3CCC(c4ccc5c(c4)-n4c(nc(=O)c6c(Cl)cccc64)C54CCCCC4)CC3)CC2)nn1)C(C)(C)C)c1ccc(-c2scnc2C)cc1` [Compound A148, (2S,4R)-1-((S)-2-(4-((1r,4S)-4-((4-(4′-chloro-5′-oxo-5′H-spiro[cyclohexane-1,7′-indolo[1,2-a]quinazolin]-10′-yl)piperidin-1-yl)methyl)cyclohexyl)-1H-1,2,3-triazol-1-yl)-3,3-dimethylbutanoyl)-4-hydroxy-N—((R)-13-(4-(4-methylthiazol-5-yl)phenyl)-2,5,8,11-tetraoxatridecan-13-yl)pyrrolidine-2-carboxamide], the DC50 on SMARCA4 is above 1000 nM; on SMARCA2 it was below 10 nM. For the same compound, the Dmax at SMARCA4 is 50 to 69%; on SMARCA2, above 90%.

For `COCCOCCOCCOCCOC[C@H](NC(=O)[C@@H]1C[C@@H](O)CN1C(=O)[C@@H](n1cc([C@H]2CC[C@H](CN3CCC(c4ccc5c(c4)-n4c(nc(=O)c6c(Cl)cccc64)C54CCCCC4)CC3)CC2)nn1)C(C)(C)C)c1ccc(-c2scnc2C)cc1` [Compound A149, (2S,4R)-1-((S)-2-(4-((1r,4S)-4-((4-(4′-chloro-5′-oxo-5′H-spiro[cyclohexane-1,7′-indolo[1,2-a]quinazolin]-10′-yl)piperidin-1-yl)methyl)cyclohexyl)-1H-1,2,3-triazol-1-yl)-3,3-dimethylbutanoyl)-4-hydroxy-N—((R)-16-(4-(4-methylthiazol-5-yl)phenyl)-2,5,8,11,14-pentaoxahexadecan-16-yl)pyrrolidine-2-carboxamide], at SMARCA4, the DC50 was above 1000 nM and the Dmax was in the range of 50 to 69%. For the same compound, at SMARCA2, the DC50 was below 10 nM and the Dmax was above 90%.

For the compound `COCCOCCOCCOC[C@H](NC(=O)[C@@H]1C[C@@H](O)CN1C(=O)[C@@H](n1cc([C@H]2CC[C@H](CN3CCC(c4ccc5c(c4)-n4c(nc(=O)c6c(Cl)cccc64)C5(C)C)CC3)CC2)nn1)C(C)(C)C)c1ccc(-c2scnc2C)cc1` [Compound A150, (2S,4R)-1-((S)-2-(4-((1r,4S)-4-((4-(4-chloro-7,7-dimethyl-5-oxo-5,7-dihydroindolo[1,2-a]quinazolin-10-yl)piperidin-1-yl)methyl)cyclohexyl)-1H-1,2,3-triazol-1-yl)-3,3-dimethylbutanoyl)-4-hydroxy-N—((R)-13-(4-(4-methylthiazol-5-yl)phenyl)-2,5,8,11-tetraoxatridecan-13-yl)pyrrolidine-2-carboxamide], at SMARCA4, the DC50 is above 1000 nM and the Dmax was below 50%. For the same compound, on SMARCA2, the half-maximal degradation concentration (DC50) is below 10 nM and the Dmax is above 90%.
